In patent publication US20100179225A1, “POI Prevention” (CYTOKINE PHARMASCIENCES, INC., priority 2008, published 2010):

Tests used:
ICAM-1 mRNA = assay: Proinflammatory gene expression in ME, real-time RT-PCR: ICAM-1; assay type: in vivo, mice; details: 5 mg/kg i.v. preoperative
Text: The small bowel of the animals was subjected to a standardized, surgical manipulation (IM) as described previously (Kalff J C, Schraut W H, Simmons R L et al. Surgical manipulation of the gut elicits an intestinal muscularis inflammatory response resulting in postsurgical ileus. Ann Surg 1998; 228:652-663; Wehner S, Schwarz N T, Hundsdoerfer R et al. Induction of IL-6 within the rodent intestinal muscularis after intestinal surgical stress. Surgery 2005; 137:436-446). In brief, after anesthesia a midline abdominal incision was made into the peritoneal cavity. […]
Proinflammatory gene expression was analyzed in placebo and CNI-1493 (5 mg/kg) treated animals at 1, 3, 6 and 24 hours after operation; n=5-7 each group. […] Total RNA was analyzed in ME specimen that was prepared as described before (Wehner S, Behrendt F F, Lyutenski B N et al. Inhibition of macrophage function prevents intestinal inflammation and postoperative ileus in rodents. Gut 2007; 56:176-185). […] Expression of mRNA was quantified in triplicate by a RT-PCR with gene expression assays for […] (MCP-1; #Mm00441242_m1), CCL3 (MIP-1α #Mm00441258_m1), IL-6 (Assay ID #Mm00446190_ml), TNF-α (#Mm00443258_m1) and ICAM-1 (#Mm00516023_m1). […] Data quantification was performed by the ΔΔCT method. […]

ED1 positive cells = assay: ED1 positive cell (monocyte/macrophage) infiltration into graft muscularis after small intestinal transplantation; assay type: in vivo, Lewis rats; details: 1 mg/kg i.v.; 18 h after reperfusion
Procedure: (§1) Syngeneic orthotopic small intestinal transplantation was performed in Lewis rats as previously described (Schwarz N T, Nakao A, Nalesnik M A, Kalff J C, Murase N, Bauer A J. Protective effects of ex vivo graft radiation and tacrolimus on syngeneic transplanted rat small bowel motility. Surgery 2002; 131: 413-423). […] Then the graft vascular bed was perfused with chilled UW solution (University of Wisconcin) and the intestinal lumen was irrigated with 50 ml cold 0.9% NaCl solution containing […]. neomycin sulfate (Uro Nebacetin N, Nycomed, Germany). The graft was stored in cold UW solution during the preparation of the recipient. An end-to-side anastomosis between the graft aorta and the recipient infra-renal aorta, and between the graft vein and recipient vena cava, was performed. […]
ED1 and MPO+-cells were counted under a microscope (TE-2000, Nikon, Duesseldorf, Germany) in 5 randomly chosen areas in each specimen.
In order to evaluate cell populations which are known to be associated with inflammation processes and to initiate immunological processes within the muscularis, leukocyte infiltrates were evaluated after 18 h by MPO histochemistry (polymorphonuclear neutrophils) and ED1 immunohistochemistry (monocytes and passenger macrophages). […]

[1] = system: apoptotic cells in graft muscularis; assay: Apoptosis within smooth muscle layer of grafts (TUNEL); assay type: in vivo, Lewis rats; details: 1 mg/kg
Procedure: as §1, with “performed. Approximately 80% of the recipient intestine was removed and enteric continuity was restored by proximal and distal end-to-end intestinal anastomoses.” for “performed.”
Apoptotic cells within the smooth muscle layer of the grafts were detected 3 and 18 h after reperfusion by detection of DNA double strand breaks with a commercially available TUNEL kit (Roche, Mannheim, Germany) according to the manufactures instructions.

Structure (SMILES) | ICAM-1 mRNA expression (fold upregulation) (ICAM-1 mRNA; 1 hour after IM) | ICAM-1 mRNA expression (fold upregulation) (ICAM-1 mRNA; 3 hours after IM) | ED1 positive cells in muscularis (ED1 positive cells) | number of apoptotic bodies in muscularis ([1]; 3 h after reperfusion) | number of apoptotic bodies in muscularis ([1]; 18 h after reperfusion)
C/C(=N\N=C(N)N)c1cc(NC(=O)CCCCCCCCC(=O)Nc2cc(/C(C)=N/N=C(N)N)cc(/C(C)=N/N=C(N)N)c2)cc(/C(C)=N/N=C(N)N)c1.Cl.Cl.Cl.Cl [CNI-1493] | 3.3±0.70 fold | 7.2±2.8 fold | – | – | –
C/C(=N\N=C(N)N)c1cc(NC(=O)CCCCCCCCC(=O)Nc2cc(/C(C)=N/N=C(N)N)cc(/C(C)=N/N=C(N)N)c2)cc(/C(C)=N/N=C(N)N)c1.CS(=O)(=O)O.CS(=O)(=O)O.CS(=O)(=O)O.CS(=O)(=O)O [CPSI-2364] | – | – | 54.8 cells/field of view (magnification 200×) | 21.0 | 7.2
